Patent US5614370A, “Assay to identify human C5a antagonists and agonists” (Merck & Co., Inc., priority 1994, dated 1997)
Entries after “also recorded” stand apart in the source; their conditions may differ. Where two headings read alike, the source gives them in different places. One block for each molecule: values may come before it. Non-standard residues stand in square brackets, D forms with d. Residues, ends and D or L forms follow the SMILES beside them. NMeF = CN[C@@H](Cc1ccccc1)C(=O)O; Cha = N[C@@H](CC1CCCCC1)C(=O)O; dCha = N[C@H](CC1CCCCC1)C(=O)O

Key:
degranulation = conditions: Mollison et al., cited from earlier work
chemokinetic response = conditions: Mollison et al.; cited from earlier work
neutrophils = conditions: Drapeau et al.; cited from earlier work
C5a receptor [1] = conditions: literature; cited from earlier work
human neutrophils [2] = assay: Inhibition of C5a induced degranulation (MPO release); format: cell-based
Method: (§1) FIG. 7A and 7B. […] These concentrations of the stimulating agents released 22% and 19% of the total cellular MPO, respectively.
(§2) This assay was performed on human neutrophils as previously reported and it is a measure of C5a or peptide induced exocytosis (Rollins, T. E. and Springer, M. S. (1985) J. Biol. Chem. 260, 7157-7160).

[3] = test system: human neutrophil membranes; assay: Inhibition of C5a stimulated GTPase activity; format: biochemical
Method: as §1
The method of Kupper et al. (Kupper, R. W., Dewald, B., Jakobs, K. H., Baggiolini, M. and Gierschik, P. (1992) Biochem. J. 282, 429-434) was adapted for use in microtiter plates. Neutrophil membranes were suspended in 50 mM triethanolamine-HCl, 5 mM MES, pH 7.3, containing 1 mM EDTA, 5 mM MgCl2, 143 mM NaCl, 0.16 % BSA, 1 mM ouabain, 1 mM AMP-PNP, 0.5 mM ATP, 2.5 U/mL creatine phosphokinase,. 10 mM creatine phosphate, 0.1 mM PMSF and 10 ng/mL each of leupeptin, aprotinin and chymostatin. 50 μL of membranes containing 1-5 μg protein were added to 50 μL of the same buffer containing the test agent and 0.25 μM [γ-^32 P]-GTP (2,000 cpm/pmol) in the wells of a U-shaped microtiter plate. After incubation for 15-30 rain at 29° C., 100 μL of a 10% (w/v) charcoal suspension in 100 mM H3 PO4 was added and plates were centrifuged at 2000 rpm for 5 min. 100 μL of the supernatant was transferred to an Optiplate microtiter plate and 100 μL of Microscint-40 scintillation cocktail was added. Plates were counted in a Packard TopCount microtiter plate counter.

human neutrophils [4] = assay: Inhibition of IL-8 induced degranulation (specificity control); format: cell-based; conditions: 8 nM IL-8, FIG. 7A
Method: as §1, §2

C5a receptor [5] = biological target: T1, C5a receptor (Homo sapiens, UniProt P21730); assay: biochemical; format: binding
T1 construct: followed by a 20 μL aliquot of neutrophil membrane; endogenous in cells
T1 sequence (P21730 1-350): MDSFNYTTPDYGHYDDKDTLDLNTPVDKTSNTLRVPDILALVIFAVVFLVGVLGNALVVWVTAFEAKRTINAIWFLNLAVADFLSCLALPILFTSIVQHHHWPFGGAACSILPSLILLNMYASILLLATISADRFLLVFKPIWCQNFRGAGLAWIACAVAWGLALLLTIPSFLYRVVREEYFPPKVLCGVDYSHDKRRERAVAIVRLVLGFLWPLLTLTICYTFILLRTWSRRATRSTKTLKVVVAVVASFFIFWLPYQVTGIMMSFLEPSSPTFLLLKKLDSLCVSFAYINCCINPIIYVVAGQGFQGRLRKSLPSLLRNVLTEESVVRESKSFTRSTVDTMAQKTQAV
Method: Initially, we attempted to conduct binding studies with ^125 I radiolabeled C009: ^125 I-Tyr Phe Lys Ala Cha Cha Leu dPhe Arg, SEQ.ID:1:, wherein Cha is cyclohexylalanine, and dPhe is the D isomer of phenylalanine. This compound is a C5a agonist displaying a Ki for C5a of 8 nM. The presence of the tyrosine allowed us to radioiodinate the peptide and establish a binding assay in which both C5a (IC50=0.1 nM) and unlabeled C009 (IC50 =10 nM) inhibit the binding of ^125 I-C009 with concentration dependencies similar to those obtained from competition experiments against ^125 I-C5a.
In FIG. 1, unlabeled C013 is used to compete with ^125 I-labeled C5a. […] In FIG. 2, the C013 is ^125 I labeled. Unlabeled C5a and unlabeled C013 are each used to compete the labeled C013 from C5a binding sites on the membranes. […] In FIG. 3a, ^125 I-C5a is competed from its binding site by unlabeled C064 and unlabeled, natural C5a (as opposed to recombinant C5a, which, however, may also obviously may be used for these purposes). […] In FIG. 3b, the inverse experiment is shown, wherein ^125 I-C064 is displaced by unlabeled C064 and unlabeled nC5a.
Peptide (5 nMoles) are added to 40μL of 0.1 M sodium phosphate, pH 7.6, in a tube, followed by 2 mCi of ^125 I in 20 μL. 10 μL of a freshly made 0.5 mg/mL solution of chloramine T is then added. After 30 seconds of incubation, 10 μL of a freshly prepared 2 mg/mL solution of Na2 S2 O3 is added, the tube is vortexed, and the sample loaded onto a Vydac C4 reverse phase column. The column is developed with a TFA/acetonitrile gradient and the iodinated peptide is isolated. The material is stored at 4° C. in the elution buffer.
To 205 μL binding buffer (50 mM HEPES, pH 7.2, containing 5 mM MgCl2, 1mM CaCl2, 0.5% BSA) in a polypropylene tube is added 30,000CPM of the ^125 I peptide in 20 μL, and 5 μL of a known dilution of the test compound or diluent, followed by a 20 μL aliquot of neutrophil membrane [equivalent to 500,000 neutrophils; Rollins, T.E. et al., J. Biol Chem. 260:7157 (1985); see also U.S. Pat. No. 5,177,190, herein incorporated by reference].
The assay mixture is incubated for 2 hours at 29° C. Binding buffer (2 mL) is then added, the tube is vortexed, and the contents filtered over a Wattmann GF/C filter soaked in 0.33% polyethylenimine. An additional aliquot of binding buffer (2 mL) is added to the tube to rinse the tube, and is then used to wash the filter. The filters are removed from the apparatus and counted. Non-specific backgrounds are determined by performing assays in the presence of either 10 nM C5a, or 1 μM unlabeled peptide. Compounds which inhibit the binding of the labeled peptide are considered to be potential active compounds.

[6] = labeled ligand 125I-C009, read-out: IC50 for inhibition of binding of 125I-C009

Molecule: CN[C@@H](Cc1ccccc1)C(=O)N[C@@H](CCCCN)C(=O)N1CCC[C@H]1C(=O)N[C@H](CC1CCCCC1)C(=O)N[C@@H](Cc1ccccc1)C(=O)N[C@H](CCCNC(=N)N)C(=O)O [C026, NMeF--K--P-dCha-F-dR] (H-[NMeF]KP[dCha]F[dR]-OH)
degranulating activity in words (degranulation): not only failed to stimulate degranulation, it acted as an antagonist for this property | degranulating activity in words (degranulation; listed as NMeF--K--P-dCha-F-dR): totally devoid of degranulating activity | chemokinetic response (chemokinetic response): only a small chemokinetic response | stimulation of superoxide release from neutrophils (neutrophils): failed to stimulate superoxide release from neutrophils | agonist properties in words (C5a receptor [1]): reduced agonist properties; also recorded: behaved as an agonist in other assays

Molecule: CN[C@@H](Cc1ccccc1)C(=O)N[C@@H](CCCCN)C(=O)N1CCC[C@H]1C(=O)N[C@H](CC1CCCCC1)C(=O)N[C@@H](CC1CCCCC1)C(=O)N[C@H](CCCNC(=N)N)C(=O)O [C028, MePhe Lys Pro dCha Cha dArg] (H-[NMeF]KP[dCha][Cha][dR]-OH)
degranulating activity in words (degranulation): exhibited normal degranulating activity

Molecule: CN[C@@H](Cc1ccccc1)C(=O)N[C@@H](CCCCN)C(=O)N1CCC[C@H]1C(=O)N[C@H](CC1CCCCC1)C(=O)N[C@@H](Cc1c[nH]c2ccccc12)C(=O)N[C@H](CCCNC(=N)N)C(=O)O [C089]
inhibition of C5a stimulated degranulation in words (human neutrophils [2]): inhibits C5a stimulated degranulation | IC50 (human neutrophils [2]; FIG. 7A, challenge 0.4 nM C5a): 100 nM | inhibition of C5a stimulated G protein activation in words [3]: inhibits C5a stimulated degranulation and G protein activation | IC50 ([3]; FIG. 7B, 3 nM C5a): 3000 nM | effect on IL-8 induced degranulation (human neutrophils [4]): little effect on IL-8 induced degranulation

More lines, main results first:

IC50 (C5a receptor [5]; [6]): 10 nM
Molecule: CC(C)C[C@H](NC(=O)[C@H](CC1CCCCC1)NC(=O)[C@H](CC1CCCCC1)NC(=O)[C@H](C)NC(=O)[C@H](CCCCN)NC(=O)[C@H](Cc1ccccc1)NC(=O)[C@@H](N)Cc1ccc(O)cc1)C(=O)N[C@H](Cc1ccccc1)C(=O)N[C@@H](CCCNC(=N)N)C(=O)O [C009, Tyr Phe Lys Ala Cha Cha Leu dPhe Arg] (H-YFKA[Cha][Cha]L[dF]R-OH)
change of binding affinity by radioiodination (C5a receptor [5]): about a four-fold loss in binding affinity

IC50 (C5a receptor [5]; [6]): 0.1 nM | IC50 (C5a receptor [5]; labeled ligand 125I-C013, read-out: IC50 exhibited by the unlabeled ligand): 0.15 nM | IC50 (C5a receptor [5]; labeled ligand 125I-C064, read-out: IC50 exhibited by the unlabeled ligand): 0.093 nM
B1: C5a: 74 amino acid protein derived from the fifth component of serum complement during complement activation (protein, UniProt P01031 678-751, looked up)
C5a anaphylatoxin: TLQKKIEEIAAKYKHSVVKKCCYDGACVNNDETCEQRAARISLGPRCIKAFTECCVVASQLRANISHKDMQLGR
modifications: C5a anaphylatoxin
